{"source": "patent US20250129104A1", "about": "“7H-PYRROLO[2,3-D]PYRIMIDINES AND PREPARATION AND USES THEREOF” (BioSplice Therapeutics, Inc., priority 2021, published 2025)"}
{"biological_target": "recombinant DYRK1A kinase (Homo sapiens (Human), UniProt Q13627)", "experiment": "DYRK1A kinase assay (Ser/Thr 18 peptide Z-lyte FRET assay)", "type": "biochemical", "details": "DYRK1A kinase activity; 15 μM ATP, 1 h room temperature; method text calls the value IC50", "summary_of_the_method": "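Recombinant human DYRK1A (0.25 μg/mL) with 15 μM ATP and 4 μM Ser/Thr 18 peptide, 1 h at room temperature with compound (11-point, 1:3, 10 μM top, duplicate). Z-lyte development 1 h, then coumarin/fluorescein FRET emission ratio converted to % phosphorylation; IC50 by non-linear regression.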", "units": {"EC50": "nM"}}
{"smiles": "COc1nc(NC2CCC3(CC2)OCCO3)nc2[nH]cc(-c3cc(F)c4nccn4c3)c12", "note": "[Compound 2188, 5-(8-Fluoroimidazo[1,2-a]pyridin-6-yl)-4-methoxy-N-(1,4-dioxaspiro[4.5]decan-8-yl)-7H-pyrrolo[2,3-d]pyrimidin-2-amine]", "EC50": 1.9}
{"smiles": "CCOc1nc(N[C@H](C)C(F)(F)F)nc2[nH]cc(-c3cc(F)c4nccn4c3)c12", "note": "[Compound 2189, (R)-4-Ethoxy-5-(8-fluoroimidazo[1,2-a]pyridin-6-yl)-N-(1,1,1-trifluoropropan-2-yl)-7H-pyrrolo[2,3-d]pyrimidin-2-amine]", "EC50": 8.1}
{"smiles": "CCOc1nc(N[C@H]2CC[C@@H](O)CC2)nc2[nH]cc(-c3cc(F)c4nccn4c3)c12", "note": "[Compound 2190, cis-4-((4-Ethoxy-5-(8-fluoroimidazo[1,2-a]pyridin-6-yl)-7H-pyrrolo[2,3-d]pyrimidin-2-yl)amino)cyclohexan-1-ol]", "EC50": 3}
{"smiles": "Cn1nnc2ccc(-c3c[nH]c4nc(N[C@H]5CC[C@@](C)(O)CC5)ncc34)cc21", "note": "[Compound 2191, cis-1-Methyl-4-((5-(1-methyl-1H-benzo[d][1,2,3]triazol-6-yl)-7H-pyrrolo[2,3-d]pyrimidin-2-yl)amino)cyclohexan-1-ol]", "EC50": 4.7}
{"smiles": "Cn1nnc2ccc(-c3c[nH]c4nc(N[C@H]5CC[C@@H](OCC(F)F)CC5)ncc34)cc21", "note": "[Compound 2192, N-(cis-4-(2,2-Difluoroethoxy)cyclohexyl)-5-(1-methyl-1H-benzo[d][1,2,3]triazol-6-yl)-7H-pyrrolo[2,3-d]pyrimidin-2-amine]", "EC50": 6.9}
{"smiles": "COc1nc(N[C@H](C)C(F)(F)F)nc2[nH]cc(-c3ccc4nnn(C)c4c3)c12", "note": "[Compound 2193, (R)-4-Methoxy-5-(1-methyl-1H-benzo[d][1,2,3]triazol-6-yl)-N-(1,1,1-trifluoropropan-2-yl)-7H-pyrrolo[2,3-d]pyrimidin-2-amine]", "EC50": 2.1}
{"smiles": "COC[C@@H](C)Nc1nc(OC)c2c(-c3ccc4nnn(C)c4c3)c[nH]c2n1", "note": "[Compound 2194, (R)-4-Methoxy-N-(1-methoxypropan-2-yl)-5-(1-methyl-1H-benzo[d][1,2,3]triazol-6-yl)-7H-pyrrolo[2,3-d]pyrimidin-2-amine]", "EC50": 5.5}
{"smiles": "COc1nc(NC2CCN(C)CC2)nc2[nH]cc(-c3ccc4nnn(C)c4c3)c12", "note": "[Compound 2195, 4-Methoxy-5-(1-methyl-1H-benzo[d][1,2,3]triazol-6-yl)-N-(1-methylpiperidin-4-yl)-7H-pyrrolo[2,3-d]pyrimidin-2-amine]", "EC50": 9.4}
{"smiles": "CCOc1nc(N[C@H](C)C(F)(F)F)nc2[nH]cc(-c3ccc4nnn(C)c4c3)c12", "note": "[Compound 2196, (R)-4-Ethoxy-5-(1-methyl-1H-benzo[d][1,2,3]triazol-6-yl)-N-(1,1,1-trifluoropropan-2-yl)-7H-pyrrolo[2,3-d]pyrimidin-2-amine]", "EC50": 11.6}
{"smiles": "CCOc1nc(N[C@H]2CC[C@@H](O)CC2)nc2[nH]cc(-c3ccc4nnn(C)c4c3)c12", "note": "[Compound 2197, cis-4-((4-Ethoxy-5-(1-methyl-1H-benzo[d][1,2,3]triazol-6-yl)-7H-pyrrolo[2,3-d]pyrimidin-2-yl)amino)cyclohexan-1-ol]", "EC50": 1.5}
{"smiles": "COc1nc(NC2CCC(F)(F)CC2)nc2[nH]cc(-c3ccc4nnn(CC(F)F)c4c3)c12", "note": "[Compound 2198, N-(4,4-Difluorocyclohexyl)-5-(1-(2,2-difluoroethyl)-1H-benzo[d][1,2,3]triazol-6-yl)-4-methoxy-7H-pyrrolo[2,3-d]pyrimidin-2-amine]", "EC50": 170}
{"smiles": "FC(F)CO[C@H]1CC[C@@H](Nc2ncc3c(-c4ccc5nccn5n4)c[nH]c3n2)CC1", "note": "[Compound 2199, N-(cis-4-(2,2-Difluoroethoxy)cyclohexyl)-5-(imidazo[1,2-b]pyridazin-6-yl)-7H-pyrrolo[2,3-d]pyrimidin-2-amine]", "EC50": 2.2}
{"smiles": "[2H]C([2H])([2H])O[C@H]1CC[C@@H](Nc2ncc3c(-c4ccn5nccc5c4)c[nH]c3n2)CC1", "note": "[Compound 2200, N-(cis-4-(Methoxy-d3)cyclohexyl)-5-(pyrazolo[1,5-a]pyridin-5-yl)-7H-pyrrolo[2,3-d]pyrimidin-2-amine]", "EC50": 2.6}
{"smiles": "FC(F)CO[C@H]1CC[C@@H](Nc2ncc3c(-c4ccn5nccc5c4)c[nH]c3n2)CC1", "note": "[Compound 2201, N-(cis-4-(2,2-Difluoroethoxy)cyclohexyl)-5-(pyrazolo[1,5-a]pyridin-5-yl)-7H-pyrrolo[2,3-d]pyrimidin-2-amine]", "EC50": 5}
{"smiles": "OCCO[C@H]1CC[C@@H](Nc2ncc3c(-c4ccn5nccc5c4)c[nH]c3n2)CC1", "note": "[Compound 2202, 2-((cis-4-((5-(Pyrazolo[1,5-a]pyridin-5-yl)-7H-pyrrolo[2,3-d]pyrimidin-2-yl)amino)cyclohexyl)oxy)ethan-1-ol]", "EC50": 3.9}
{"smiles": "COCCO[C@H]1CC[C@@H](Nc2ncc3c(-c4ccn5nccc5c4)c[nH]c3n2)CC1", "note": "[Compound 2203, N-(cis-4-(2-Methoxyethoxy)cyclohexyl)-5-(pyrazolo[1,5-a]pyridin-5-yl)-7H-pyrrolo[2,3-d]pyrimidin-2-amine]", "EC50": 3.4}
{"smiles": "COc1nc(N[C@H](C)C(F)(F)F)nc2[nH]cc(-c3ccn4nccc4c3)c12", "note": "[Compound 2204, (R)-4-Methoxy-5-(pyrazolo[1,5-a]pyridin-5-yl)-N-(1,1,1-trifluoropropan-2-yl)-7H-pyrrolo[2,3-d]pyrimidin-2-amine]", "EC50": 15.4}
{"smiles": "COC[C@@H](C)Nc1nc(OC)c2c(-c3ccn4nccc4c3)c[nH]c2n1", "note": "[Compound 2205, (R)-4-Methoxy-N-(1-methoxypropan-2-yl)-5-(pyrazolo[1,5-a]pyridin-5-yl)-7H-pyrrolo[2,3-d]pyrimidin-2-amine]", "EC50": 79.5}
{"smiles": "COc1nc(NC2CCC(F)(F)CC2)nc2[nH]cc(-c3ccn4nccc4c3)c12", "note": "[Compound 2206, N-(4,4-Difluorocyclohexyl)-4-methoxy-5-(pyrazolo[1,5-a]pyridin-5-yl)-7H-pyrrolo[2,3-d]pyrimidin-2-amine]", "EC50": 3.2}
{"smiles": "COc1nc(N[C@H]2CC[C@@H](O)CC2)nc2[nH]cc(-c3ccn4nccc4c3)c12", "note": "[Compound 2207, cis-4-((4-Methoxy-5-(pyrazolo[1,5-a]pyridin-5-yl)-7H-pyrrolo[2,3-d]pyrimidin-2-yl)amino)cyclohexan-1-ol]", "EC50": 1.7}
{"smiles": "COc1nc(N[C@H]2CC[C@@](C)(O)CC2)nc2[nH]cc(-c3ccn4nccc4c3)c12", "note": "[Compound 2208, cis-4-((4-Methoxy-5-(pyrazolo[1,5-a]pyridin-5-yl)-7H-pyrrolo[2,3-d]pyrimidin-2-yl)amino)-1-methylcyclohexan-1-ol]", "EC50": 4.3}
{"smiles": "COc1nc(N[C@H]2CC[C@](C)(O)CC2)nc2[nH]cc(-c3ccn4nccc4c3)c12", "note": "[Compound 2209, trans-4-((4-Methoxy-5-(pyrazolo[1,5-a]pyridin-5-yl)-7H-pyrrolo[2,3-d]pyrimidin-2-yl)amino)-1-methylcyclohexan-1-ol]", "EC50": 1.6}
{"smiles": "[2H]C([2H])([2H])O[C@H]1CC[C@@H](Nc2nc(OC)c3c(-c4ccn5nccc5c4)c[nH]c3n2)CC1", "note": "[Compound 2210, 4-Methoxy-N-(cis-4-(methoxy-d3)cyclohexyl)-5-(pyrazolo[1,5-a]pyridin-5-yl)-7H-pyrrolo[2,3-d]pyrimidin-2-amine]", "EC50": 3.4}
{"smiles": "COc1nc(N[C@H]2CC[C@@H](OC(F)F)CC2)nc2[nH]cc(-c3ccn4nccc4c3)c12", "note": "[Compound 2211, N-(cis-4-(Difluoromethoxy)cyclohexyl)-4-methoxy-5-(pyrazolo[1,5-a]pyridin-5-yl)-7H-pyrrolo[2,3-d]pyrimidin-2-amine]", "EC50": 126}
{"smiles": "COc1nc(N[C@H]2CC[C@@H](OCC(F)F)CC2)nc2[nH]cc(-c3ccn4nccc4c3)c12", "note": "[Compound 2212, N-(cis-4-(2,2-Difluoroethoxy)cyclohexyl)-4-methoxy-5-(pyrazolo[1,5-a]pyridin-5-yl)-7H-pyrrolo[2,3-d]pyrimidin-2-amine]", "EC50": 6.6}
{"smiles": "COc1nc(N[C@H]2CC[C@@H](OCCO)CC2)nc2[nH]cc(-c3ccn4nccc4c3)c12", "note": "[Compound 2213, 2-((cis-4-((4-Methoxy-5-(pyrazolo[1,5-a]pyridin-5-yl)-7H-pyrrolo[2,3-d]pyrimidin-2-yl)amino)cyclohexyl)oxy)ethan-1-ol]", "EC50": 71.9}
{"smiles": "COCCO[C@H]1CC[C@@H](Nc2nc(OC)c3c(-c4ccn5nccc5c4)c[nH]c3n2)CC1", "note": "[Compound 2214, 4-Methoxy-N-(cis-4-(2-methoxyethoxy)cyclohexyl)-5-(pyrazolo[1,5-a]pyridin-5-yl)-7H-pyrrolo[2,3-d]pyrimidin-2-amine]", "EC50": 1.7}
{"smiles": "COc1nc(NC2CCC3(CC2)OCCO3)nc2[nH]cc(-c3ccn4nccc4c3)c12", "note": "[Compound 2215, 4-Methoxy-5-(pyrazolo[1,5-a]pyridin-5-yl)-N-(1,4-dioxaspiro[4.5]decan-8-yl)-7H-pyrrolo[2,3-d]pyrimidin-2-amine]", "EC50": 1.6}
{"smiles": "COc1nc(NC2CCN(C)CC2)nc2[nH]cc(-c3ccn4nccc4c3)c12", "note": "[Compound 2216, 4-Methoxy-N-(1-methylpiperidin-4-yl)-5-(pyrazolo[1,5-a]pyridin-5-yl)-7H-pyrrolo[2,3-d]pyrimidin-2-amine]", "EC50": 7.4}
{"smiles": "COc1nc(NC2CCOCC2)nc2[nH]cc(-c3ccn4nccc4c3)c12", "note": "[Compound 2217, 4-Methoxy-5-(pyrazolo[1,5-a]pyridin-5-yl)-N-(tetrahydro-2H-pyran-4-yl)-7H-pyrrolo[2,3-d]pyrimidin-2-amine]", "EC50": 2.2}
{"smiles": "CCOc1nc(N[C@H](C)C(F)(F)F)nc2[nH]cc(-c3ccn4nccc4c3)c12", "note": "[Compound 2218, (R)-4-Ethoxy-5-(pyrazolo[1,5-a]pyridin-5-yl)-N-(1,1,1-trifluoropropan-2-yl)-7H-pyrrolo[2,3-d]pyrimidin-2-amine]", "EC50": 12.9}
{"smiles": "CCOc1nc(N[C@H]2CC[C@@H](O)CC2)nc2[nH]cc(-c3ccn4nccc4c3)c12", "note": "[Compound 2219, cis-4-((4-Ethoxy-5-(pyrazolo[1,5-a]pyridin-5-yl)-7H-pyrrolo[2,3-d]pyrimidin-2-yl)amino)cyclohexan-1-ol]", "EC50": 3.5}
